Measured values published in PMC9873984, “Membrane cholesterol regulates inhibition and substrate transport by the glycine transporter, GlyT2” (Life Science Alliance, 2023).

What was measured:
[1] = target: T1, WT GlyT2 (Homo sapiens, UniProt Q9Y345); assay: Inhibitor concentration–responses on glycine transport currents, two-electrode voltage clamp (control and MβCD-treated oocytes); assay type: cell-based; set-up: expressed in transfected cells; host or cells: Xenopus laevis oocytes injected with in vitro transcribed RNA (pOTV vector); conditions: for Reduction of potency after cholesterol depletion: MβCD-treated vs control oocytes
T1 sequence (Q9Y345 1-797): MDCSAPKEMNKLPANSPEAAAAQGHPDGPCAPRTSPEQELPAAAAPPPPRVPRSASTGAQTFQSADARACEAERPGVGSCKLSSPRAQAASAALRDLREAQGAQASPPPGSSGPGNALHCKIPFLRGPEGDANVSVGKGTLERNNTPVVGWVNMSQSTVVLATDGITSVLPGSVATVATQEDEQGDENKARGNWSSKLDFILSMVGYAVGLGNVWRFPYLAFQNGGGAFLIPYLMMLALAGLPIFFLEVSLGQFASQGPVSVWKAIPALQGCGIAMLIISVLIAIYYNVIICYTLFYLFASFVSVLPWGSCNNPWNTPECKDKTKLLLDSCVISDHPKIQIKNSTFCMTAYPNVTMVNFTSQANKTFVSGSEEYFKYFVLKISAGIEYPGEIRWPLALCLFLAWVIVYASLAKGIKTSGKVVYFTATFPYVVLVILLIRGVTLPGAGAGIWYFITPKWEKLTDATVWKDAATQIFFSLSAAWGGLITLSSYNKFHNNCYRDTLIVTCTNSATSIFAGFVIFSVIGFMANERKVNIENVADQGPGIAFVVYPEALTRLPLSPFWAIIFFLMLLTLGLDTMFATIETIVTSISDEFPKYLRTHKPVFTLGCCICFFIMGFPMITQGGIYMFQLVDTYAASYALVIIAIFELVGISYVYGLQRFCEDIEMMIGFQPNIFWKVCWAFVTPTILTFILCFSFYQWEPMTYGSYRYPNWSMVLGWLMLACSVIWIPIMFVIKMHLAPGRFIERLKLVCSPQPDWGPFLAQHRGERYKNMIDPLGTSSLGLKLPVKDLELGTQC
Method: (§1) Individual oocytes were incubated at 32°C for 30 min in 15 mM MβCD or γCD, suspended in frog Ringer’s solution.
Because of the slowly reversible nature of the compounds tested, inhibitor concentration–responses were performed cumulatively. An EC50 concentration of glycine was applied until a stable transport current was reached. EC50 concentrations of glycine were used to produce reliable currents for each transporter, and as the inhibitors are non-competitive, application of varying glycine concentrations is unlikely to affect their activity. Increasing concentrations of inhibitors were co-applied with glycine with each concentration producing a distinct plateau before the subsequent concentration was applied. Inhibitor concentration–responses were limited to a maximum concentration of 3 µM to mitigate the risk of changes to the free drug concentration because of micelle formation. Currents after the plateau of each inhibitor concentration were normalized to the current produced by application of glycine alone and fit using the method of least squares: Y=Bottom+(Top−Bottom)/(1+10^[X−LogIC50]), where X is log [inhibitor], Y is current normalized to glycine in the absence of inhibitor, and Top and Bottom are the maximal and minimal plateaus, respectively. The method of least squares was constrained to have the bottom value >0 and the hill slope as −1, enabling the calculation of IC50 values and the extent of inhibition produced by the maximal concentration applied.
IC50 values are presented as the mean and 95% confidence interval, whereas inhibition values are presented as the mean ± SEM. Data sets are n ≥ 5 from two batches of oocytes.
As the inhibitors assayed here are slowly reversible, inhibitor concentration–responses were unable to be performed on the same cell after treatment with MβCD. Thus, GlyT2 expression was tested by applying a maximal glycine concentration (300 µM) before treatment with MβCD to deplete membrane cholesterol. After MβCD treatment, oocytes were returned to the electrophysiology set-up and washed for 10 min in recording buffer to remove cyclodextrins. […] After successful depletion, inhibitor concentration–responses were performed as described above (see “Inhibitor concentration–response—mutagenesis” in the Materials and Methods section).

[2] = target: T1, WT GlyT2; assay: Inhibitor washout time course (reversibility), control and MβCD-treated oocytes; assay type: cell-based; set-up: expressed in transfected cells; host or cells: Xenopus laevis oocytes injected with in vitro transcribed RNA (pOTV vector)
Method: as §1
Reversibility of GlyT2 inhibitors was determined by applying an EC50 concentration of glycine followed by co-application of the inhibitor at an IC50 concentration once a stable current had been achieved. Inhibitors were applied for 4 min as this was sufficient time to produce substantial inhibition for each compound and allowed for their direct comparison. At the conclusion of 4 min (time 0), ND96 buffer was perfused through the recording chamber to wash the oocyte. […] Transport currents were normalized to glycine currents in the absence of inhibitor and converted to % recovery values via Y=It−It=0/Imax−It=0, where Y is % recovery, I is current in nA, Imax is the maximal current produced by the glycine EC50, and t is time in minutes. Washout kinetics were then determined by fitting % recovery values to the first-order rate equation: Y=(Y0−Plateau).e^(−Kt)+Plateau, where Y is the % recovery, Y0 is the point, which crosses the Y-axis (constrained to 0) and increases to the plateau (constrained to between 0 and 100), K is the rate constant (1/t), and t is time in minutes. […] Because of the slowly […] nature of the inhibitors, washout time courses involving cyclodextrin treatment could not be performed on the same cell. […] As these experiments could not occur on the same cell, differences in half-life and maximal recovery were analysed via an unpaired two-tailed t test.

[3] = target: T1, WT GlyT2; conditions: read-out: Glycine EC50; WT GlyT2 in Xenopus laevis oocytes; glycine 1 μM – 3 mM
Method: The transport activity of GlyT2 is an electrogenic process as it couples the transport of glycine to the co-transport of 3 Na^+ and 1 Cl^− and thus can be measured using two-electrode voltage-clamp electrophysiology. Oocytes expressing GlyTs were voltage-clamped at −60 mV, and glycine-induced whole-cell currents were measured using a GeneClamp 500 amplifier (Axon Instruments), and a PowerLab 2/26 chart recorder (ADInstruments) and LabChart Software (ADInstruments).
Functionality of WT and mutant GlyT2 transporters was assessed by applying increasing concentrations of glycine (1–3,000 µM) in ND96 until a stable current was achieved. Glycine concentrations were applied individually and completely removed from the system via washing with recording buffer before proceeding to the next concentration. EC50 values for each transporter were determined by fitting concentration–response data to the modified Michaelis–Menten equation: I=([Gly].Imax)/(EC50+[Gly]), where I is current in nA, [Gly] is the concentration of glycine, Imax is the current generated by a maximal concentration of glycine, and EC50 is the concentration of glycine that generates a half-maximal current.

[4] = MβCD-treated oocytes (15 mM, 30 min, 32 °C), 3 µM
[5] = MβCD-treated oocytes (15 mM, 30 min, 32 °C; cholesterol depleted)
[6] = WT GlyT2 in Xenopus laevis oocytes, 3 μM, Table S10
[7] = WT GlyT2 in Xenopus laevis oocytes, glycine EC50 co-applied, Table S10
[8] = MβCD-treated oocytes (15 mM, 30 min, 32°C)
[9] = WT, washout after 4 min IC50 concentration of inhibitor, Table S11

SMILES | Inhibition at 3 μM [1, 4] [%] | IC50 [1, 5] [µM] | Reduction of potency after cholesterol depletion [1] | Inhibition at 3 μM [1, 6] [%] | IC50 [1, 7] [µM] | Half-life (transport current recovery) ([2]; Control oocytes, Table S8) | Recovery at 30 min ([2]; Control oocytes, Table S8) | Half-life (transport current recovery) [2, 8] | Recovery at 30 min [2, 8] | Half-life (transport current recovery) [2, 9] | Recovery at 30 Min [2, 9] | Inhibition at 1 µM (column head 3 μM, footnote b) ([1]; MβCD-treated oocytes (15 mM, 30 min, 32 °C)) | Inhibition at 1 µM (column head 3 μM, footnote b) ([1]; WT GlyT2 in Xenopus laevis oocytes, Table S10) | Half-life (transport current recovery) ([2]; MβCD-treated oocytes (15 mM, 30 min, 32°C), listed as OLLeu) | Inhibition at 3 μM ([1]; Control oocytes, 3 µM, Table S7) [%] | IC50 ([1]; WT GlyT2 in Xenopus laevis oocytes, glycine EC50 co-applied, Table S10, listed as OLLys) [µM] | Recovery at 30 min ([2]; MβCD-treated oocytes (15 mM, 30 min, 32°C), listed as OLLys) | EC50 [3] [µM]
CCCCCCCC/C=C\CCCCCCCC(=O)O[C@H](CC(=O)[O-])C[N+](C)(C)C [Oleoyl-L-Carnitine, oleoyl-L-carnitine] | – | 0.8 | does not alter the potency | – | 0.52 | – | 45.7% | – | 92.4% | – | – | 60.5 ± 5.3^b % | 55.5 ± 5.2^b % | – | – | – | – | –
NCC(=O)O [Glycine, glycine] | – | – | – | – | – | – | – | – | – | – | – | – | – | – | – | – | – | 18

Now from value to molecule, other results behind:

Inhibition at 3 μM [1, 4] [%] | IC50 [1, 5] [µM] | Reduction of potency after cholesterol depletion [1] | Inhibition at 3 μM [1, 6] [%] | IC50 [1, 7] [µM] | Half-life (transport current recovery) ([2]; Control oocytes, Table S8) | Recovery at 30 min ([2]; Control oocytes, Table S8) | Half-life (transport current recovery) [2, 8] | Recovery at 30 min [2, 8] | Half-life (transport current recovery) [2, 9] | Recovery at 30 Min [2, 9] | Inhibition at 1 µM (column head 3 μM, footnote b) ([1]; MβCD-treated oocytes (15 mM, 30 min, 32 °C)) | Inhibition at 1 µM (column head 3 μM, footnote b) ([1]; WT GlyT2 in Xenopus laevis oocytes, Table S10) | Half-life (transport current recovery) ([2]; MβCD-treated oocytes (15 mM, 30 min, 32°C), listed as OLLeu) | Inhibition at 3 μM ([1]; Control oocytes, 3 µM, Table S7) [%] | IC50 ([1]; WT GlyT2 in Xenopus laevis oocytes, glycine EC50 co-applied, Table S10, listed as OLLys) [µM] | Recovery at 30 min ([2]; MβCD-treated oocytes (15 mM, 30 min, 32°C), listed as OLLys) | SMILES | EC50 [3] [µM]
78 ± 4 | 0.13 | does not alter the potency | 76.2 ± 2.3 | 0.103 | No Recovery | No Recovery | No Recovery | No Recovery | No Recovery | No Recovery | – | – | – | – | – | – | CCCCCCCC/C=C\CCCCCCCC(=O)N[C@@H](Cc1c[nH]c2ccccc12)C(=O)O [Oleoyl-L-Tryptophan, oleoyl-L-tryptophan] | –
64.9 ± 3.8 | 0.619 | 2.4 fold | 69.4 ± 3.8 | 0.262 | 2.3 ± 0.5 min | – | 3.1 ± 0.3 min | 92.2 ± 3.7 % | 2.3 ± 0.5 min | 51.1 ± 2.7% | – | – | unchanged | – | – | – | CCCCCCCC/C=C\CCCCCCCC(=O)N[C@@H](CC(C)C)C(=O)O [Oleoyl-L-Leucine, oleoyl-L-leucine] | –
91.5 ± 1.5 | 0.269 | 2.3 fold | 86.6 ± 1.9 | 0.215 | – | – | – | 63.0 ± 4.1% | – | 55.1 ± 1.5% | – | – | – | 93.6 ± 1.9 | 0.22 | no difference was observed | CCCCCCCC/C=C\CCCCCCCC(=O)N[C@@H](CCCCN)C(=O)O [Oleoyl-L-Lysine, oleoyl-L-lysine] | –
